Calls of active or inactive are those of the source. For most assays here, no stated cut-off is given here; in the data, actives have a measured Kd and inactives only a lower limit.
Assays:
[1] = biological target: T1, Non-receptor tyrosine-protein kinase TNK1 (Homo sapiens, UniProt Q13470)
T1 sequence (Q13470 whole entry): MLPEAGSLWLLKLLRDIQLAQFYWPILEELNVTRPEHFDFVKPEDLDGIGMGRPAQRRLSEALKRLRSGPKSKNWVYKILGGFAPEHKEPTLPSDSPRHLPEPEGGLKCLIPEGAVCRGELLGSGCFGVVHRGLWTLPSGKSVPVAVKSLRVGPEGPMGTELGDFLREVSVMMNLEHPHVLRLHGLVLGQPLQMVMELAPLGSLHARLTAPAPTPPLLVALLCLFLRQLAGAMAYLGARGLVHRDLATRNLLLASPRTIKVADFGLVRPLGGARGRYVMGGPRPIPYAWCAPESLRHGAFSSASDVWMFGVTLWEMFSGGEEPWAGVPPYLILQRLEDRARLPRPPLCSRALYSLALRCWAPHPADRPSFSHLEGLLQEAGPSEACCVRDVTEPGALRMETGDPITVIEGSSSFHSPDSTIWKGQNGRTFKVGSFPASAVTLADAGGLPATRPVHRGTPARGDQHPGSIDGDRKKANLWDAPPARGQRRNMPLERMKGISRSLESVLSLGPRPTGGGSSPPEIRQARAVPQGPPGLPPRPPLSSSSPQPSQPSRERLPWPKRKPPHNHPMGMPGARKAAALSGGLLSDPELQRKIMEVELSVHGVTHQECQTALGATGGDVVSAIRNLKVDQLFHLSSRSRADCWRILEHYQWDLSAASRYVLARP

[2] = biological target: Mitogen-activated protein kinase 10 (Homo sapiens, UniProt P53779)
Sequence of Mitogen-activated protein kinase 10 (P53779 whole entry): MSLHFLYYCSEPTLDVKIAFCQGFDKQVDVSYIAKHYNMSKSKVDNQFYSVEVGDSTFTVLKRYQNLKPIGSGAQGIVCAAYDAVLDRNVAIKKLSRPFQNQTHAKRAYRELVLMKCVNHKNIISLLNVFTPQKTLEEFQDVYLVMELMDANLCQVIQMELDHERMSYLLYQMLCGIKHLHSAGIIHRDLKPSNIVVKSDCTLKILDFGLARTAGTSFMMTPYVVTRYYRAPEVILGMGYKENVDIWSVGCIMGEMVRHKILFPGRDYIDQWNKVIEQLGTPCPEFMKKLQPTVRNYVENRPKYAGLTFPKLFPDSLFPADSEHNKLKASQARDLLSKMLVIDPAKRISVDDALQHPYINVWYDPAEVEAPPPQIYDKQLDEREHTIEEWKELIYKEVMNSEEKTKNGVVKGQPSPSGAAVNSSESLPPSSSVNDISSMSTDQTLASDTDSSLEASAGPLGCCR

[3] = biological target: T2, Receptor-type tyrosine-protein kinase FLT3 (Homo sapiens, UniProt P36888)
T2 sequence (P36888 whole entry): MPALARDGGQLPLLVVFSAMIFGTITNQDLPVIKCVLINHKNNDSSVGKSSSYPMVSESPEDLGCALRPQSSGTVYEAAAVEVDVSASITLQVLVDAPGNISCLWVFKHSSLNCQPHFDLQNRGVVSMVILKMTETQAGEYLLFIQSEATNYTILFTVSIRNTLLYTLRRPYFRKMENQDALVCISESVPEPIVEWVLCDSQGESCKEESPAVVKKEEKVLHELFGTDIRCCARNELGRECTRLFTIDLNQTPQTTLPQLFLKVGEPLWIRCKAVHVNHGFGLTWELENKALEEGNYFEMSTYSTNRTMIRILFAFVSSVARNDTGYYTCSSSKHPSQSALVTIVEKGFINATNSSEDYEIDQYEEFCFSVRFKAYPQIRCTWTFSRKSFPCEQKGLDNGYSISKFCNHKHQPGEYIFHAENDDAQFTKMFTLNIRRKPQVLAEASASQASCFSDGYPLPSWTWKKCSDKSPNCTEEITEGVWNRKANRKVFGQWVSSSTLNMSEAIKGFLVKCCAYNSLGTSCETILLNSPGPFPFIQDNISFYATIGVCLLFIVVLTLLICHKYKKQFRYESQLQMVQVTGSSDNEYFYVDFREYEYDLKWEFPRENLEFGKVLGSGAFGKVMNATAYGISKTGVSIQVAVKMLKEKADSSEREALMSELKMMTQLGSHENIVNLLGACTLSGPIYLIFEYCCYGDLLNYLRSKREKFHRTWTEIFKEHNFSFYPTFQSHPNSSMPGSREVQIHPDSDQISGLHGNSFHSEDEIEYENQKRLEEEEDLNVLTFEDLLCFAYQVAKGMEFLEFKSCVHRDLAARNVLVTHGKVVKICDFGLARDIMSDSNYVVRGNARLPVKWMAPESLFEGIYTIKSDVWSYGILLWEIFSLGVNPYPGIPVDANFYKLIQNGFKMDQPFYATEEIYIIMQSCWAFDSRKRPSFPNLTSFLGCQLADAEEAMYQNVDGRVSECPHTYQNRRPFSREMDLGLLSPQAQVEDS

[4] = biological target: T3, ATP-dependent RNA helicase DHX30 (Homo sapiens, UniProt Q7L2E3)
T3 sequence (Q7L2E3 whole entry): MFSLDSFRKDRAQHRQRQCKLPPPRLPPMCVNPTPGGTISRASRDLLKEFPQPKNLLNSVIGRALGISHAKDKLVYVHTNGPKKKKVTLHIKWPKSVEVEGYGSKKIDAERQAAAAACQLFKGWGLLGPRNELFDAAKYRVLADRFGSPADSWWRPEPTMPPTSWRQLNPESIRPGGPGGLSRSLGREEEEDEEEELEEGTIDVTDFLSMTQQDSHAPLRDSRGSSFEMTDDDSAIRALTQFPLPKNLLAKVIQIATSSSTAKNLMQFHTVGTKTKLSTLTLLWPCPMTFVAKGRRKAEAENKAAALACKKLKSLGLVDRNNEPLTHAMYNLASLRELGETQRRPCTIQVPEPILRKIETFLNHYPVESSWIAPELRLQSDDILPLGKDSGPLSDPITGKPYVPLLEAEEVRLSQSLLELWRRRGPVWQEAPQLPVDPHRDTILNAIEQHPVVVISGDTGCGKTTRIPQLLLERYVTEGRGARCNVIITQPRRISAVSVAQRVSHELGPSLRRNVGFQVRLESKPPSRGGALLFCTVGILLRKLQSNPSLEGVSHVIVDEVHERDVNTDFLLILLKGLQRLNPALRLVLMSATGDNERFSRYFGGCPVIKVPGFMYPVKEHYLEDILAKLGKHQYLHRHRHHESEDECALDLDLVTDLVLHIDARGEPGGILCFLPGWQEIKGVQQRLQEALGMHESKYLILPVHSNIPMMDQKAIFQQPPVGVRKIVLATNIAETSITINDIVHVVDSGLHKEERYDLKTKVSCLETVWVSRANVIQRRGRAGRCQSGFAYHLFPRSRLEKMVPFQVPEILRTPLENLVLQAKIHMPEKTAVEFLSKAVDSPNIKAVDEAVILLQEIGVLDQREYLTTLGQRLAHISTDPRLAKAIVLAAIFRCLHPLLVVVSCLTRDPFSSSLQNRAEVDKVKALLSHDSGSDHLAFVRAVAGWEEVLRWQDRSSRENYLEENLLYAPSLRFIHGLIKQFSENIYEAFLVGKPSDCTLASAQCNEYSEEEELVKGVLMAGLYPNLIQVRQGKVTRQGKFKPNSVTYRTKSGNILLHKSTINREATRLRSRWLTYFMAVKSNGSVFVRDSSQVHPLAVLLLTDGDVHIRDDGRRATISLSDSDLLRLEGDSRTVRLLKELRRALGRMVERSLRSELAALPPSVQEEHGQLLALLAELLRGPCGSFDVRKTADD

[5] = biological target: STE20-like serine/threonine-protein kinase (Homo sapiens, UniProt Q9H2G2)
Sequence of STE20-like serine/threonine-protein kinase (Q9H2G2 whole entry): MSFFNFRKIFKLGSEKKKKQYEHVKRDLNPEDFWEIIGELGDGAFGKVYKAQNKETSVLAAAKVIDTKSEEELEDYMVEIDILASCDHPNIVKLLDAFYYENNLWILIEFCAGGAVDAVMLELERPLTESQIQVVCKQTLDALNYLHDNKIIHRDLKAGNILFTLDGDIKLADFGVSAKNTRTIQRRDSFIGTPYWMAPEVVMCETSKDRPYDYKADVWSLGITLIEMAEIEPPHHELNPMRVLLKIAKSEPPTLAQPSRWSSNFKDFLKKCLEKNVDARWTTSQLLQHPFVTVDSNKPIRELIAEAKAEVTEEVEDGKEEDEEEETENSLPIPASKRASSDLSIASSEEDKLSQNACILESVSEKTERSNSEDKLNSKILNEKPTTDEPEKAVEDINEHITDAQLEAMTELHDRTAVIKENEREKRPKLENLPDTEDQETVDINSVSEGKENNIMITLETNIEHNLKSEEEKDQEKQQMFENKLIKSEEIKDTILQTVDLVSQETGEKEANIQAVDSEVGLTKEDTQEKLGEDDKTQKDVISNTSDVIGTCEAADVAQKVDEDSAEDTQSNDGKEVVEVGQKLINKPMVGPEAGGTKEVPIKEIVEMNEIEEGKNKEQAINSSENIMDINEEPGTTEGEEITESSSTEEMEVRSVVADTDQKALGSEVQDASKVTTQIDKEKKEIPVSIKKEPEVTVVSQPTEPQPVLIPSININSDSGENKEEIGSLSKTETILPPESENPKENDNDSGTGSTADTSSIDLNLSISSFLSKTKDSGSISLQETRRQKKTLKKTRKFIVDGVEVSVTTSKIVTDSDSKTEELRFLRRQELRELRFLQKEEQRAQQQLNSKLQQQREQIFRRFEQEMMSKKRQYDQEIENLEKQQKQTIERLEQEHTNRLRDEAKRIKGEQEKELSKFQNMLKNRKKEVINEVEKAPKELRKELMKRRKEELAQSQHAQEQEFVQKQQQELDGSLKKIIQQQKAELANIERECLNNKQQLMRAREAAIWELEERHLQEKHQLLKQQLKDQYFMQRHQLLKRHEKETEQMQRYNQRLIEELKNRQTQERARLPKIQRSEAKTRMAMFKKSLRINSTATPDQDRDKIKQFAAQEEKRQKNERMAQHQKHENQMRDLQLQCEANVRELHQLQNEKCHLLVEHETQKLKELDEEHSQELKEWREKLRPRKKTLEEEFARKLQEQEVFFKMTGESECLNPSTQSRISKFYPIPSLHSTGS

Compound | Kd [1] | Kd [2] | Kd [3] | Kd [4] | Kd [5]
C=CC(=O)N1CCC[C@H](n2c(=O)n(-c3ccc(Oc4ccccc4)cc3)c3c(N)ncnc32)C1 | > 30 µM (inactive) | > 30 µM (inactive) | > 30 µM (inactive) | > 30 µM (inactive) | > 30 µM (inactive)
Cc1nc2cc(-c3nn(C(C)C)c4ncnc(N)c34)ccc2o1 | > 30 µM (inactive) | > 30 µM (inactive) | 7.04 µM (active) | > 30 µM (inactive) | > 30 µM (inactive)
COCc1c(-c2ccc(NC(=O)Nc3cc(C(F)(F)F)ccc3F)c(F)c2)c2c(N)ncnn2c1CN1CCOCC1 | 1.26 µM (active) | > 30 µM (inactive) | 0.465 µM (active) | > 30 µM (inactive) | > 30 µM (inactive)
Nc1ncnc2c1c(-c1cccc(OCc3ccccc3)c1)cn2[C@H]1C[C@@H](CN2CCC2)C1 [AEW-541] | > 30 µM (inactive) | > 30 µM (inactive) | > 30 µM (inactive) | > 30 µM (inactive) | > 30 µM (inactive)
Cc1csc(-c2nnc(Nc3ccc(Oc4ncccc4-c4ccnc(N)n4)cc3)c3ccccc23)c1 [AMG-900] | > 30 µM (inactive) | > 30 µM (inactive) | > 30 µM (inactive) | > 30 µM (inactive) | > 30 µM (inactive)
C=CC(=O)Nc1cc2c(Nc3ccc(F)c(Cl)c3)ncnc2cc1C#CC(C)(C)N1CCN(C)CC1 [AV-412 FREE BASE] | > 30 µM (inactive) | > 30 µM (inactive) | > 30 µM (inactive) | > 30 µM (inactive) | 13.4 µM (active)
NC(=O)Nc1cc(-c2cccc(F)c2)sc1C(=O)N[C@H]1CCCNC1 [AZD-7762] | > 30 µM (inactive) | > 30 µM (inactive) | > 30 µM (inactive) | > 30 µM (inactive) | 1.09 µM (active)
Cc1cc(C(=O)NOCCO)c(Nc2ccc(I)cc2F)n(C)c1=O [AZD-8330] | > 30 µM (inactive) | > 30 µM (inactive) | > 30 µM (inactive) | > 30 µM (inactive) | > 30 µM (inactive)
Cn1cnc2c(F)c(Nc3ccc(Br)cc3F)c(C(=O)NOCCO)cc21 [BINIMETINIB] | > 30 µM (inactive) | > 30 µM (inactive) | > 30 µM (inactive) | > 30 µM (inactive) | > 30 µM (inactive)
COc1cc2ncnc(Oc3cccc(NC(=O)Nc4cc(C(C)(C)C(F)(F)F)on4)c3)c2cc1OC [CEP-32496] | > 30 µM (inactive) | 0.378 µM | 0.55 µM (active) | > 30 µM (inactive) | > 30 µM (inactive)
Cc1cc(Nc2ncc(Cl)c(Nc3ccccc3S(=O)(=O)C(C)C)n2)c(OC(C)C)cc1C1CCNCC1 [CERITINIB] | 0.027 µM (active) | > 30 µM (inactive) | 4.26 µM (active) | > 30 µM (inactive) | > 30 µM (inactive)
COc1c(OCCCN2CCOCC2)ccc2c1N=C(NC(=O)c1cnc(N)nc1)N1CCN=C21 [COPANLISIB] | > 30 µM (inactive) | > 30 µM (inactive) | > 30 µM (inactive) | > 30 µM (inactive) | > 30 µM (inactive)
COCC(=O)NC/C=C/c1ccc2ncnc(Nc3ccc(Oc4ccc(C)nc4)c(C)c3)c2c1 [CP-724714] | > 30 µM (inactive) | > 30 µM (inactive) | > 30 µM (inactive) | > 30 µM (inactive) | > 30 µM (inactive)
C#Cc1cccc(Nc2ncnc3cc(OC)c(OCCCCCCC(=O)NO)cc23)c1 [CUDC-101] | > 30 µM (inactive) | > 30 µM (inactive) | > 30 µM (inactive) | > 30 µM (inactive) | > 30 µM (inactive)
O=C(Nc1nc2cccc(-c3ccc(CN4CCS(=O)(=O)CC4)cc3)n2n1)C1CC1 [FILGOTINIB] | > 30 µM (inactive) | 2.14 µM (active) | > 30 µM (inactive) | > 30 µM (inactive) | 9.27 µM (active)
Cc1cccc(-c2nn3c(c2-c2ccnc4ccc(C(N)=O)cc24)CCC3)n1 [GALUNISERTIB] | > 30 µM (inactive) | > 30 µM (inactive) | > 30 µM (inactive) | > 30 µM (inactive) | > 30 µM (inactive)
COc1ccc(S(=O)(=O)N(C(C)=O)c2ccccc2/C=C/c2cc[n+]([O-])cc2)cc1 [HMN-214] | > 30 µM (inactive) | > 30 µM (inactive) | > 30 µM (inactive) | > 30 µM (inactive) | > 30 µM (inactive)
CNC(=O)c1cccc2cc(Oc3ccnc4cc(OCC5(N)CC5)c(OC)cc34)ccc12 [LUCITANIB] | > 30 µM (inactive) | > 30 µM (inactive) | > 30 µM (inactive) | > 30 µM (inactive) | > 30 µM (inactive)
NC1(c2ccc(-c3nc4ccn5c(=O)[nH]nc5c4cc3-c3ccccc3)cc2)CCC1 [MK-2206] | > 30 µM (inactive) | > 30 µM (inactive) | > 30 µM (inactive) | > 30 µM (inactive) | > 30 µM (inactive)
CN(C[C@@H]1COCCO1)S(=O)(=O)Nc1ccc2ccc3ncc(-c4cnn(C)c4)cc3c(=O)c2c1 [MK-2461] | > 30 µM (inactive) | 4.7 µM (active) | > 30 µM (inactive) | > 30 µM (inactive) | > 30 µM (inactive)
Cn1cc(-c2cnc3ccc4ccc(CS(=O)(=O)NCc5ccccn5)cc4c(=O)c3c2)cn1 [MK-8033] | > 30 µM (inactive) | > 30 µM (inactive) | > 30 µM (inactive) | > 30 µM (inactive) | > 30 µM (inactive)
CCOc1cc2ncc(C#N)c(Nc3ccc(F)c(Cl)c3)c2cc1NC(=O)/C=C/CN(C)C [PELITINIB] | > 30 µM (inactive) | > 30 µM (inactive) | > 30 µM (inactive) | > 30 µM (inactive) | > 30 µM (inactive)
